Data: US6472526B1, “Imidazole derivatives having an inhibitory activity for farnesyl transferase and process for preparation thereof” (LG Chemical Ltd., priority 1997, dated 2002)

Assays:
Ras farnesyl transferase [1] = molecular target: T1, Ras farnesyl transferase (Homo sapiens, UniProt P49354+P49356); assay: In vitro inhibitory activity for Ras farnesyl transferase, H-Ras substrate; type: biochemical
T1 construct: made in house

Ras farnesyl transferase [2] = molecular target: T1, Ras farnesyl transferase; assay: In vitro inhibitory activity for Ras farnesyl transferase, K-Ras substrate; type: biochemical
Ras farnesyl transferase [3] = molecular target: T2, Ras farnesyl transferase (Rattus norvegicus, UniProt Q02293+Q04631); assay: In vivo (cellular) inhibitory activity for Ras farnesyl transferase, Rat2 cell line which expresses C-Harvey-Ras protein; type: cell-based
T2 construct: endogenous in cells; host or cells: Rat2 fibroblasts transformed with H-Ras or with an H-Ras/K-Ras C-terminus fusion
How it was run: (§1)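 Transformed Rat2 fibroblasts (H-Ras or H-Ras/K-Ras polybasic-tail fusion) treated with compound in 1% DMSO; after 4 h labelled with [35S]methionine 150 μCi/ml for 20 h. Lysates immunoprecipitated with anti-Ras Y13-259, resolved by 13.5% SDS-PAGE and autoradiography; CIC50 = concentration inhibiting 50% of Ras farnesylation from band intensities.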

Ras farnesyl transferase [4] = molecular target: T2, Ras farnesyl transferase; assay: In vivo (cellular) inhibitory activity for Ras farnesyl transferase, Rat2 cell line transformed with fused protein of H-Ras substituted with polybasic lysine domain at C-terminus of K-Ras; type: cell-based
How it was run: as §1

[5] = recombinant farnesyl transferase 4.5 nM, Ras substrate protein 1.5 μM, tritium-farnesylpyrophosphate 0.15 μM, 30 minutes at 37° C., read-out: H-Ras IC50
[6] = in vitro farnesyl transferase assay, K-Ras, read-out: K-Ras IC50
[7] = Rat2 cell line expressing C-Harvey-Ras, concentration inhibiting 50% of farnesyl bonding of Ras protein, read-out: H-Ras CIC50
[8] = Rat2 cell line transformed with H-Ras fused with polybasic lysine domain of K-Ras C-terminus, concentration inhibiting 50% of farnesyl bonding, read-out: K-Ras CIC50

SMILES	IC50 (Ras farnesyl transferase [1]) [µM]	IC50 (Ras farnesyl transferase [2]) [µM]	IC50 (Ras farnesyl transferase [3]) [µM]	IC50 (Ras farnesyl transferase [4]) [µM]	IC50 (Ras farnesyl transferase [1]; [5]) [µM]	IC50 (Ras farnesyl transferase [2]; [6]) [µM]	IC50 (Ras farnesyl transferase [3]; [7]) [µM]	IC50 (Ras farnesyl transferase [4]; [8]) [µM]
COCCN(C)C(=O)c1cn(Cc2cncn2Cc2ccc(Br)cc2)cc1C(=O)c1cccc2ccccc12 [Compound 141]	0.23	10 to 100	1 to 10	10 to 50	–	–	–	–
O=C(c1ccc(Cl)cc1Cl)c1cn(Cc2c[nH]cn2)c(Cc2ccccc2)c1-c1cccc2ccccc12 [Compound 72]	–	–	–	–	0.05	0.1 to 10	1 to 50	10 to 100
O=C(c1ccc(F)cc1)c1cn(Cc2c[nH]cn2)cc1-c1cccc2ccccc12 [Compound 58]	–	–	–	–	0.025	0.1 to 10	1 to 50	10 to 100
COCCN(C)C(=O)c1cn(Cc2cncn2CCc2ccc(OC)cc2)cc1-c1cccc2ccccc12 [Compound 19, 3-[N-(2-Methoxyethyl)-N-methyl]carbamoyl-1-[1-(4-methoxy)phenethyl-1H-imidazol-5-yl]methyl-4-(naphthalen-1-yl)-1H-pyrrole]	–	–	–	–	0.001	0.003	0.02	10 to 50
